Results published in ChEMBL document CHEMBL4507290 (2021).

Tests used:
[1] = biological target: Serine/threonine-protein kinase 24 (Homo sapiens) (UniProt Q9Y6E0); conditions: Compound concentration 1000.0 nM
[2] = biological target: Ephrin type-B receptor 3 (Homo sapiens) (UniProt P54753); conditions: Compound concentration 1000.0 nM
[3] = biological target: Serine/threonine-protein kinase tousled-like 2 (Homo sapiens) (UniProt Q86UE8); conditions: Compound concentration 1000.0 nM
[4] = biological target: Calcium/calmodulin-dependent protein kinase kinase 2 (Homo sapiens) (UniProt Q96RR4); conditions: Compound concentration 1000.0 nM
[5] = biological target: RAC-beta serine/threonine-protein kinase (Homo sapiens) (UniProt P31751); conditions: Compound concentration 1000.0 nM
[6] = biological target: Cyclin-dependent kinase 7 (Homo sapiens) (UniProt P50613); conditions: Compound concentration 1000.0 nM
[7] = biological target: Serine/threonine-protein kinase TNNI3K (Homo sapiens) (UniProt Q59H18); conditions: Compound concentration 1000.0 nM
[8] = biological target: Homeodomain-interacting protein kinase 1 (Homo sapiens) (UniProt Q86Z02); conditions: Compound concentration 1000.0 nM
[9] = biological target: Receptor tyrosine-protein kinase erbB-4 (Homo sapiens) (UniProt Q15303); conditions: Compound concentration 1000.0 nM
[10] = biological target: Serine/threonine-protein kinase WNK3 (Homo sapiens) (UniProt Q9BYP7); conditions: Compound concentration 1000.0 nM
[11] = biological target: Ribosomal protein S6 kinase alpha-2 (Homo sapiens) (UniProt Q15349); conditions: Compound concentration 1000.0 nM
[12] = tested on: Mast/stem cell growth factor receptor Kit (Homo sapiens), P10721 [V559D,V654A]; conditions: Compound concentration 1000.0 nM
[13] = biological target: Serine/threonine-protein kinase/endoribonuclease IRE1 (Homo sapiens) (UniProt O75460); conditions: Compound concentration 1000.0 nM
[14] = biological target: Serine/threonine-protein kinase OSR1 (Homo sapiens) (UniProt O95747); conditions: Compound concentration 1000.0 nM
[15] = biological target: Serine/threonine-protein kinase 33 (Homo sapiens) (UniProt Q9BYT3); conditions: Compound concentration 1000.0 nM
[16] = biological target: AP2-associated protein kinase 1 (Homo sapiens) (UniProt Q2M2I8); conditions: Compound concentration 1000.0 nM
[17] = biological target: Serine/threonine-protein kinase Nek5 (Homo sapiens) (UniProt Q6P3R8); conditions: Compound concentration 1000.0 nM
[18] = biological target: Muscarinic acetylcholine receptor M1 (Homo sapiens) (UniProt P11229); conditions: Compound concentration 10.0 uM
[19] = biological target: Tyrosine-protein kinase Fes/Fps (Homo sapiens) (UniProt P07332); conditions: Compound concentration 1000.0 nM
[20] = biological target: Mitogen-activated protein kinase kinase kinase 1 (Homo sapiens) (UniProt Q13233); conditions: Compound concentration 1000.0 nM
[21] = biological target: Serine/threonine-protein kinase Chk2 (Homo sapiens) (UniProt O96017); conditions: Compound concentration 1000.0 nM
[22] = biological target: Tyrosine-protein kinase ABL1 (Homo sapiens) (UniProt P00519); conditions: Compound concentration 1000.0 nM
[23] = biological target: Mu-type opioid receptor (Homo sapiens) (UniProt P35372); conditions: Compound concentration 10.0 uM
[24] = biological target: Insulin receptor-related protein (Homo sapiens) (UniProt P14616); conditions: Compound concentration 1000.0 nM
[25] = biological target: Cyclin-dependent kinase 17 (Homo sapiens) (UniProt Q00537); conditions: Compound concentration 1000.0 nM
[26] = biological target: Tyrosine-protein kinase Fer (Homo sapiens) (UniProt P16591); conditions: Compound concentration 1000.0 nM
[27] = biological target: Calcium/calmodulin-dependent protein kinase kinase 1 (Homo sapiens) (UniProt Q8N5S9); conditions: Compound concentration 1000.0 nM
[28] = biological target: Serine/threonine-protein kinase MRCK gamma (Homo sapiens) (UniProt Q6DT37); conditions: Compound concentration 1000.0 nM
[29] = biological target: Mitogen-activated protein kinase kinase kinase 19 (Homo sapiens) (UniProt Q56UN5); conditions: Compound concentration 1000.0 nM
[30] = biological target: Macrophage colony-stimulating factor 1 receptor (Homo sapiens) (UniProt P07333); conditions: Compound concentration 1000.0 nM
[31] = biological target: Mitotic checkpoint serine/threonine-protein kinase BUB1 (Homo sapiens) (UniProt O43683); conditions: Compound concentration 1000.0 nM
[32] = biological target: Ribosomal protein S6 kinase alpha-2 (Homo sapiens) (UniProt Q15349); conditions: Compound concentration 1000.0 nM; remark: listed apart in the source
[33] = biological target: Myosin light chain kinase (Homo sapiens) (UniProt Q32MK0); conditions: Compound concentration 1000.0 nM
[34] = biological target: Tyrosine-protein kinase BTK (Homo sapiens) (UniProt Q06187); conditions: Compound concentration 1000.0 nM
[35] = biological target: Serine/threonine-protein kinase mTOR (Homo sapiens) (UniProt P42345); conditions: Compound concentration 1000.0 nM
[36] = biological target: Serine/threonine-protein kinase NLK (Homo sapiens) (UniProt Q9UBE8); conditions: Compound concentration 1000.0 nM
[37] = biological target: Serine/threonine-protein kinase PAK 5 (Homo sapiens) (UniProt Q9P286); conditions: Compound concentration 1000.0 nM
[38] = biological target: Non-receptor tyrosine-protein kinase TYK2 (Homo sapiens) (UniProt P29597); conditions: Compound concentration 1000.0 nM
[39] = biological target: Protein kinase C iota type (Homo sapiens) (UniProt P41743); conditions: Compound concentration 1000.0 nM
[40] = biological target: Muscarinic acetylcholine receptor M4 (Homo sapiens) (UniProt P08173); conditions: Compound concentration 10.0 uM
[41] = biological target: Ribosomal protein S6 kinase alpha-4 (Homo sapiens) (UniProt O75676); conditions: Compound concentration 1000.0 nM
[42] = biological target: Mitogen-activated protein kinase 6 (Homo sapiens) (UniProt Q16659); conditions: Compound concentration 1000.0 nM
[43] = biological target: Serine/threonine-protein kinase Nek10 (Homo sapiens) (UniProt Q6ZWH5); conditions: Compound concentration 1000.0 nM
[44] = tested on: Tyrosine-protein kinase ABL1 (Homo sapiens), P00519 [M351T]; conditions: Compound concentration 1000.0 nM
[45] = biological target: Mitogen-activated protein kinase kinase kinase 13 (Homo sapiens) (UniProt O43283); conditions: Compound concentration 1000.0 nM

Sequence of Ribosomal protein S6 kinase alpha-2 (Homo sapiens) (Q15349 whole entry): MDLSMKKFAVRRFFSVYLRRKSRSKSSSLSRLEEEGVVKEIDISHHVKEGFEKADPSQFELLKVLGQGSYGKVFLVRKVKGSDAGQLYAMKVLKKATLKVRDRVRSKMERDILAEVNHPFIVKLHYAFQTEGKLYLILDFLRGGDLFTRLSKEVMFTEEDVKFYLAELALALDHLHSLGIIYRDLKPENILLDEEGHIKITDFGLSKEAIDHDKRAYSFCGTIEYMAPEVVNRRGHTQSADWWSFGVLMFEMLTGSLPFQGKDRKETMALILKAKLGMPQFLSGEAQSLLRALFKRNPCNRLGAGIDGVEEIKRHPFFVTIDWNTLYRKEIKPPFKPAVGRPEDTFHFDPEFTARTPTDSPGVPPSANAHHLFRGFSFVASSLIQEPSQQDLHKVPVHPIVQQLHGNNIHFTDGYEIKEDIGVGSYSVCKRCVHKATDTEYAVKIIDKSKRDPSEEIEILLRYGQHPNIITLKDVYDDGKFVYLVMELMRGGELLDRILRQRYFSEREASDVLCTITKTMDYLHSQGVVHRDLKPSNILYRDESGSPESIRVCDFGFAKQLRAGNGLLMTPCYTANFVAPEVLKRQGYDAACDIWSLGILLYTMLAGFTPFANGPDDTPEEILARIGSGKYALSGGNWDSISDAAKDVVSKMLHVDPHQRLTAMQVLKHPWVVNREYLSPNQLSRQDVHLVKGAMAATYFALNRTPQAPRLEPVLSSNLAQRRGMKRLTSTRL
Sequence of Homeodomain-interacting protein kinase 1 (Homo sapiens) (Q86Z02 whole entry, looked up): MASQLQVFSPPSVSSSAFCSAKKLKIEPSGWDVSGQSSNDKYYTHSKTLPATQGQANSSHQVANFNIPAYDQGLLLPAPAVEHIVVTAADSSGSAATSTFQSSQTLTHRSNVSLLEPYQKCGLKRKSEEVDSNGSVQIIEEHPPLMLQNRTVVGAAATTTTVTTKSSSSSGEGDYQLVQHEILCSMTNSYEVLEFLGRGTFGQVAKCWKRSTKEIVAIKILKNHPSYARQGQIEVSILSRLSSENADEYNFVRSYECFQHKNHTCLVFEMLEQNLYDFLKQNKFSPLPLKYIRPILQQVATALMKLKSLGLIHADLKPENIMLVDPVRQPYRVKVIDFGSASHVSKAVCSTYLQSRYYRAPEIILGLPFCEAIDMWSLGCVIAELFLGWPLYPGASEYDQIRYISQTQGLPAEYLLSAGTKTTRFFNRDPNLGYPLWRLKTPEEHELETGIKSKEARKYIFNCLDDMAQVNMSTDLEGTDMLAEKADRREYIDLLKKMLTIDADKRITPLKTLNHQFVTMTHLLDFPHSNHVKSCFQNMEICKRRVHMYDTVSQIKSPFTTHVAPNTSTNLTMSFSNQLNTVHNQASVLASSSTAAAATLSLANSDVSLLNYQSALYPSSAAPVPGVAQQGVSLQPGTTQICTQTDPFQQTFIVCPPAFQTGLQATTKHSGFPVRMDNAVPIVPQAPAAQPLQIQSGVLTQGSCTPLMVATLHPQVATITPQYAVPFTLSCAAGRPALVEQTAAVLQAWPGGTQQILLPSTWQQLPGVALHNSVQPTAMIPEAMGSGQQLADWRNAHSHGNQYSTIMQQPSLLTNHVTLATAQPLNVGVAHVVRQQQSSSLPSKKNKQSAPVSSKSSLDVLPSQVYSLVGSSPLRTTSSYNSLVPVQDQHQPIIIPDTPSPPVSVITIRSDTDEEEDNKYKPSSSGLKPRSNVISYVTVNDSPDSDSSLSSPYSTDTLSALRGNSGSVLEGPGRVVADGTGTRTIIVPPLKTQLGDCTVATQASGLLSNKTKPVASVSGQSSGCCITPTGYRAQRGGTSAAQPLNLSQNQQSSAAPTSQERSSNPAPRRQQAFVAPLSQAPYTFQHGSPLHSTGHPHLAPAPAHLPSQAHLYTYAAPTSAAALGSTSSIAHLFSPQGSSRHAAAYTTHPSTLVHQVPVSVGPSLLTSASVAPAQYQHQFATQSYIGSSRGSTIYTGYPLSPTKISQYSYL
Sequence of RAC-beta serine/threonine-protein kinase (Homo sapiens) (P31751 whole entry): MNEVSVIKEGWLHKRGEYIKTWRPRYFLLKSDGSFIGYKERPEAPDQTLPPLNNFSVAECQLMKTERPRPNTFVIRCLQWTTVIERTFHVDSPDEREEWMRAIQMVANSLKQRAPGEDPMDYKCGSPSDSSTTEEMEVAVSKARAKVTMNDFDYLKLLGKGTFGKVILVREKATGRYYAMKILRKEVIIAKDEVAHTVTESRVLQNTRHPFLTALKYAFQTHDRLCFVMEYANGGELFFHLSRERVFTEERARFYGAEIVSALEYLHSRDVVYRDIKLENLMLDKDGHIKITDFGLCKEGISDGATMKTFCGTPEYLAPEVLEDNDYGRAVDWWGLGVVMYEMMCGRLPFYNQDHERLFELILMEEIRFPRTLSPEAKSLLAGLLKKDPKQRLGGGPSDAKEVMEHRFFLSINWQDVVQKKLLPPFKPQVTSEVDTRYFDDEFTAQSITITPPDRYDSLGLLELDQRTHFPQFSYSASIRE
Sequence of Tyrosine-protein kinase BTK (Homo sapiens) (Q06187 whole entry): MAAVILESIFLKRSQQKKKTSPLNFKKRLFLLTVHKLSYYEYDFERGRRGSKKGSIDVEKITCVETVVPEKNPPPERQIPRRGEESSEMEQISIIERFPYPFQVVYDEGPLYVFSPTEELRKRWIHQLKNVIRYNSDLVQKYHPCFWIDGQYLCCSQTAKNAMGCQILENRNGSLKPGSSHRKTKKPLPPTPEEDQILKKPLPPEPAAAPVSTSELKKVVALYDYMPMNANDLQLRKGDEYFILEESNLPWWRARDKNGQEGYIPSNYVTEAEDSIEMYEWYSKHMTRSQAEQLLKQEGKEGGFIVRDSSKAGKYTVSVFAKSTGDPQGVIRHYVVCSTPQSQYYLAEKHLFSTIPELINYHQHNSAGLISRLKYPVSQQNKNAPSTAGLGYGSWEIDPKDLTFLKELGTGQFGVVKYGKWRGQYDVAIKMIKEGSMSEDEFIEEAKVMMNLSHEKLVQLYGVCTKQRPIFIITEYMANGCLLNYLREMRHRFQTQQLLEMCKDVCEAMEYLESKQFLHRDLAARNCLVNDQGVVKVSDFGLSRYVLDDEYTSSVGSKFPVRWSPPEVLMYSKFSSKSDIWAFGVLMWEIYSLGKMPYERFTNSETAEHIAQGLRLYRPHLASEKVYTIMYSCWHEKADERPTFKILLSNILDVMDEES
Sequence of Serine/threonine-protein kinase MRCK gamma (Homo sapiens) (Q6DT37 whole entry): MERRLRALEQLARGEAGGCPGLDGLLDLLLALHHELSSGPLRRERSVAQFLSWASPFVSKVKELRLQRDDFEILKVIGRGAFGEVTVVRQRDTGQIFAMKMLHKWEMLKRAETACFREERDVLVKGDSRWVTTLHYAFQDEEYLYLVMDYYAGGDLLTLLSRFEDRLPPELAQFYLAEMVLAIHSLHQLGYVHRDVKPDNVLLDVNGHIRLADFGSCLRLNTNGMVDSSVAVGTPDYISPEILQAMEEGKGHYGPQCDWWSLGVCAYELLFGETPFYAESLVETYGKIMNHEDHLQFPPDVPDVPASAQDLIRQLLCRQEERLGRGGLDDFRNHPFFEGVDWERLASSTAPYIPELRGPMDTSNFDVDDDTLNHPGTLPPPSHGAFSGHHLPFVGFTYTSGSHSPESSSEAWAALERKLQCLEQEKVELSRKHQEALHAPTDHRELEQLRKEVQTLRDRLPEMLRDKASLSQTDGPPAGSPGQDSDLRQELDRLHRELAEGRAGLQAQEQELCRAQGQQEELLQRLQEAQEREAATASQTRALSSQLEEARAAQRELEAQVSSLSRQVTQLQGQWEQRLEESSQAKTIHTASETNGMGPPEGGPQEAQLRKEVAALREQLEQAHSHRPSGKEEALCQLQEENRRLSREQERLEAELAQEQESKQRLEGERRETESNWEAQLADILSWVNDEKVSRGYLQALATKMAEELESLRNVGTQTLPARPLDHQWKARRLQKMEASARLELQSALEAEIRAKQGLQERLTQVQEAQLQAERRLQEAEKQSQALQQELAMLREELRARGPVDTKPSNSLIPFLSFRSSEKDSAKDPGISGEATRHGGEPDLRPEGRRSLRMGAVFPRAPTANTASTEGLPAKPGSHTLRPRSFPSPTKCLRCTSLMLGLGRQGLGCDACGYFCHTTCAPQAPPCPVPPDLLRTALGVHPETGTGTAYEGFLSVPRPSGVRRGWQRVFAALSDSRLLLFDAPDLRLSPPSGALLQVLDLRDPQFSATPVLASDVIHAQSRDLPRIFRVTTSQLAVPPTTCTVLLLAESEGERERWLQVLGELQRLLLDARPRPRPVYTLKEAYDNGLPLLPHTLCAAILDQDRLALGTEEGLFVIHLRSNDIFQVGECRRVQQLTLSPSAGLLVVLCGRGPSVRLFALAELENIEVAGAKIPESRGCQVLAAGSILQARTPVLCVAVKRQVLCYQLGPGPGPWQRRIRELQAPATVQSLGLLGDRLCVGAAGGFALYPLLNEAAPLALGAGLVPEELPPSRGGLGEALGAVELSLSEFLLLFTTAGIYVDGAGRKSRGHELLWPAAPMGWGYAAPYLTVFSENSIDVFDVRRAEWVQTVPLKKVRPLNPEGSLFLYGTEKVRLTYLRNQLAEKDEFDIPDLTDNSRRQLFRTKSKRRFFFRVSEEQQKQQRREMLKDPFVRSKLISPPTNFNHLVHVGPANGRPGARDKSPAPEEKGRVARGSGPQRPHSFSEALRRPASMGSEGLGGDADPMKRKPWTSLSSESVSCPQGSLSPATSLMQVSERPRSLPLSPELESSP
Sequence of Serine/threonine-protein kinase 24 (Homo sapiens) (Q9Y6E0 whole entry, looked up): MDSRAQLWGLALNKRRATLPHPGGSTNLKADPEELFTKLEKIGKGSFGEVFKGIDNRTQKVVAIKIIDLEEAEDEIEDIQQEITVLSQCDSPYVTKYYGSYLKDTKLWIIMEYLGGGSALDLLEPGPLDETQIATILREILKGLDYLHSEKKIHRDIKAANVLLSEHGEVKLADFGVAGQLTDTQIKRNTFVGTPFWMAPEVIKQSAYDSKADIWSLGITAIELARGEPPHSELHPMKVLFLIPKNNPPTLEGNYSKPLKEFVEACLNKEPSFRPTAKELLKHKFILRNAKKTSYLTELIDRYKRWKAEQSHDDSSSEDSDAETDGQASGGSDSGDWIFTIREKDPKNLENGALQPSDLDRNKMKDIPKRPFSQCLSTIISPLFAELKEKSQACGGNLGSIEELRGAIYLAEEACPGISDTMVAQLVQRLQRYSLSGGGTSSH

CN([C@@H]1CCc2c(CC(=O)O)c3ccccc3n2C1)S(=O)(=O)c1ccc(F)cc1 [MK-7246]
inactive: residual activity [1] 100% | residual activity [2] 88% | residual activity [3] 100% | residual activity [4] 100% | residual activity [5] 95% | residual activity [6] 82% | residual activity [7] 100% | residual activity [8] 100% | residual activity [9] 100% | residual activity [10] 86% | residual activity [11] 84% | residual activity [12] 100% | residual activity [13] 94% | residual activity [14] 100% | residual activity [15] 100% | residual activity [16] 100% | residual activity [17] 100% | inhibition [18] 2.42% | residual activity [19] 79% | residual activity [20] 62% | residual activity [21] 100% | residual activity [22] 100% | inhibition [23] 1.33% | residual activity [24] 100% | residual activity [25] 100% | residual activity [26] 100% | residual activity [27] 91% | residual activity [28] 100% | residual activity [29] 100% | residual activity [30] 100% | residual activity [31] 79% | residual activity [32] 100% | residual activity [33] 95% | residual activity [34] 86% | residual activity [35] 100% | residual activity [36] 100% | residual activity [37] 100% | residual activity [38] 100% | residual activity [39] 100% | inhibition [40] 24.4% | residual activity [41] 100% | residual activity [42] 100% | residual activity [43] 85% | residual activity [44] 100% | residual activity [45] 100%

CN([C@@H]1CCc2c(CC(=O)O)c3cc(S(C)(=O)=O)ccc3n2C1)S(=O)(=O)c1ccc(F)cc1
inactive: residual activity [1] 100% | residual activity [2] 90% | residual activity [3] 100% | residual activity [4] 100% | residual activity [5] 92% | residual activity [6] 87% | residual activity [7] 100% | residual activity [8] 77% | residual activity [9] 100% | residual activity [10] 83% | residual activity [11] 99% | residual activity [12] 100% | residual activity [13] 100% | residual activity [14] 100% | residual activity [15] 99% | residual activity [16] 100% | residual activity [17] 100% | inhibition [18] -1.48% | residual activity [19] 92% | residual activity [20] 66% | residual activity [21] 100% | residual activity [22] 95% | inhibition [23] 7.34% | residual activity [24] 100% | residual activity [25] 100% | residual activity [26] 100% | residual activity [27] 100% | residual activity [28] 93% | residual activity [29] 79% | residual activity [30] 93% | residual activity [31] 86% | residual activity [32] 100% | residual activity [33] 100% | residual activity [34] 90% | residual activity [35] 79% | residual activity [36] 100% | residual activity [37] 100% | residual activity [38] 100% | residual activity [39] 100% | inhibition [40] -1.13% | residual activity [41] 100% | residual activity [42] 100% | residual activity [43] 91% | residual activity [44] 86% | residual activity [45] 100%
